Reference: patent EP0219144A1, “Diphenyl ether herbicides” (SHELL INTERNATIONALE RESEARCH MAATSCHAPPIJ B.V., priority 1985, dated 1987)

Experiment: physchem
Assay type: physicochemical
Details: for half-life: 25% 1,4-dioxan
Description: The hydrolytic stability of the compounds of this invention was compared with representative examples of other phenoxy phthalides specifically described in Applicants' earlier EPA 145078. This property was evaluated by determining the half-life (in hours) at pH7.0 and 9.0 in 25% 1,4-dioxan at 39°C. The results of these tests are set out in Table I below, in which the test compounds are identified by reference to the substituent A in the following formula: [drawing 12] 'N.D.D.' = No detectable decomposition over a 200 hour period

Row | Half-Life pH 7.0 (pH 7) | Half-Life pH 9.0 (pH 9) | half-life (pH 7) [h] | half-life (pH 9) [h] | SMILES
1 | NDD | NDD |  |  | CCC1(C)OC(=O)c2ccc(Oc3ccc(C(F)(F)F)cc3Cl)cc21 (centres unmarked) [C(CH3)(C2H5), H]
2 | NDD | NDD |  |  | CC1(C)OC(=O)c2ccc(Oc3c(Cl)cc(C(F)(F)F)cc3Cl)cc21 [C(CH3)2, Cl]
3 |  |  | 4920 | 1900 | CC1(C)OC(=O)c2ccc(Oc3ccc(C(F)(F)F)cc3Cl)cc21 [C(CH3)2, H, 5-(2'-Chloro-4'-trifluoromethylphenoxy)-3,3-dimethyl phthalide]

The next lines start with the molecule.

Row | SMILES | Half-Life pH 7.0 (pH 7) | Half-Life pH 9.0 (pH 9) | half-life (pH 7) [h] | half-life (pH 9) [h]
4 | CCC1(CC)OC(=O)c2ccc(Oc3ccc(C(F)(F)F)cc3Cl)cc21 [C(C2H5)2, H, 5-(2'-Chloro-4'-trifluoromethylphenoxy)-3,3-diethylphthalide] | NDD | NDD |  | 
5 | O=C1OCc2cc(Oc3ccc(C(F)(F)F)cc3Cl)ccc21 [CH2, H, reference compound] |  |  | 56.5 | 14.5
6 | COC1OC(=O)c2ccc(Oc3ccc(C(F)(F)F)cc3Cl)cc21 (centres unmarked) [CH(OCH3), H, reference compound] |  |  | 17.2 | 1.2
7 | CC1OC(=O)c2ccc(Oc3ccc(C(F)(F)F)cc3Cl)cc21 (centres unmarked) [CH(CH3), H, (2'-chloro-9'-trifluoro-methylphenoxy)-3-methyl phthalide, reference compound] |  |  | 1060 | 11
